From patent US12398154B2, “Azaquinazoline pan-KRas inhibitors” (Mirati Therapeutics, Inc., priority 2020, dated 2025)

Columns and labels:
Assay in all cases: biochemical
KRas G12C = KRas G12C (Homo sapiens, UniProt P01116, G12C);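 note: binding to KRas assessed by TR-FRET displacement after one hour incubation at room temperature, potency fitted from percent-of-control values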
Method: (§1) The ability of a compound to bind to KRas was measured using a TR-FRET displacement assay. […] After a 60-minute incubation at room temperature, the reaction was measured using a BMG LABTECH CLARIO star Plus via TR-FRET. […] The POC values were fit to a 4-parameter IC50 equation and the IC50 value reported.

KRas G12V = KRas G12V (Homo sapiens, UniProt P01116, G12V);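 note: KRas binding measured by TR-FRET displacement at room temperature, IC50 fitted from percent of control values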
Method: as §1

KRas G12D = KRas G12D (Homo sapiens, UniProt P01116, G12D);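 note: TR-FRET displacement binding assay on KRas, read after a one-hour incubation at room temperature, IC50 fitted from percent-of-control values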
Method: as §1

KRas G12R = KRas G12R (Homo sapiens, UniProt P01116, G12R);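 note: TR-FRET displacement assay of compound binding to KRas, read after one hour at room temperature, potency from a four-parameter fit of percent-of-control values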
Chain of KRas G12R (P01116 1-169 isoform P01116-2 G12R): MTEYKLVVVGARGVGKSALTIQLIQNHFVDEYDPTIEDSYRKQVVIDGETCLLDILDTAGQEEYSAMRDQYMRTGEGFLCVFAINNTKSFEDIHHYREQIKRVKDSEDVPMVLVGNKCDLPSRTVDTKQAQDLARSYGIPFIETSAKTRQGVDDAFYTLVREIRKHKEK
Method: as §1

Chain of KRas G12D (P01116 1-169 isoform P01116-2 G12D): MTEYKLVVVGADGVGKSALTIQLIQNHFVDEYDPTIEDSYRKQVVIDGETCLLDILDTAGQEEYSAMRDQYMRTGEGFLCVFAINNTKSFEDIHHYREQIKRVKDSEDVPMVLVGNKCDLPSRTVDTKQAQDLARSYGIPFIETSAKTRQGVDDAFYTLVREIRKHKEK
Chain of KRas G12C (P01116 1-169 isoform P01116-2 G12C): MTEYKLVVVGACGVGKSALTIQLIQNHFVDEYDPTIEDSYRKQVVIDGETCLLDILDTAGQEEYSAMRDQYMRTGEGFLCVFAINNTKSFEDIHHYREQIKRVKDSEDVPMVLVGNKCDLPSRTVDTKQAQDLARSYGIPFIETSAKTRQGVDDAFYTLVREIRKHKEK
Chain of KRas G12V (P01116 1-169 isoform P01116-2 G12V): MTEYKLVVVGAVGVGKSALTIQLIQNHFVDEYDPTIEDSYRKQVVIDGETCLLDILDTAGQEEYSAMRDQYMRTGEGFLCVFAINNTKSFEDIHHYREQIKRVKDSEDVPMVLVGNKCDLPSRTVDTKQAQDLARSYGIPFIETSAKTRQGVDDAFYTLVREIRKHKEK

SMILES	IC50 (KRas G12C) [µM]	IC50 (KRas G12V) [µM]	IC50 (KRas G12D) [µM]	IC50 (KRas G12R) [µM]
CC1CCCN(c2nc(OCC34CCCN3CCC4)nc3c(F)c(-c4cccc5cccc(F)c45)ncc23)C1 (centres unmarked) [Example 22, 8-fluoro-7-(8-fluoronaphthalen-1-yl)-2-((hexahydro-1H-pyrrolizin-7a-yl)methoxy)-4-(3-methylpiperidin-1-yl)pyrido[4,3-d]pyrimidine]	62.1	12.1	9.97	14.9
OC1CCCN(c2nc(OCC34CCCN3CCC4)nc3c(F)c(-c4cccc5cccc(F)c45)ncc23)C1 (centres unmarked) [Example 23, 1-(8-fluoro-7-(8-fluoronaphthalen-1-yl)-2-((hexahydro-1H-pyrrolizin-7a-yl)methoxy)pyrido[4,3-d]pyrimidin-4-yl)piperidin-3-ol]	4.74	4.3	5.27	6.18
C#Cc1cccc2cccc(-c3ncc4c(N5CCCC(C)(O)C5)nc(OCC56CCCN5CCC6)nc4c3F)c12 (centres unmarked) [Example 55]	0.295	0.212	0.139	0.41
CC1(O)CCCCN(c2nc(OCC34CCCN3CCC4)nc3c(F)c(-c4cccc5cccc(F)c45)ncc23)C1 (centres unmarked) [Example 65, 1-(8-fluoro-7-(8-fluoronaphthalen-1-yl)-2-((hexahydro-1H-pyrrolizin-7a-yl)methoxy)pyrido[4,3-d]pyrimidin-4-yl)-3-methylazepan-3-ol]	21	15	14.1	45.1
CC1(O)CCCN(c2nc(OCC34CCCN3CCC4)nc3c(F)c(-c4cccc5sc(N)nc45)ncc23)C1 (centres unmarked) [Example 67, 1-(7-(2-aminobenzo[d]thiazol-4-yl)-8-fluoro-2-((hexahydro-1H-pyrrolizin-7a-yl)methoxy)pyrido[4,3-d]pyrimidin-4-yl)-3-methylpiperidin-3-ol]	14.2	11.5	10.4	16.1
CC1(O)CCCN(c2nc(OCC34CCCN3CCC4)nc3c(F)c(-c4cc(O)ccc4F)ncc23)C1 (centres unmarked) [Example 429, 1-(8-fluoro-7-(2-fluoro-5-hydroxyphenyl)-2-((tetrahydro-1H-pyrrolizin-7a(5H)-yl)methoxy)pyrido[4,3-d]pyrimidin-4-yl)-3-methylpiperidin-3-ol]		4.44	2.46	8.25
O=C1CC2(CCCN(c3nc(OCC45CCCN4CCC5)nc4c(F)c(-c5cccc6cccc(CO)c56)ncc34)C2)N1 (centres unmarked) [Example 433, 6-(8-fluoro-2-((hexahydro-1H-pyrrolizin-7a-yl)methoxy)-7-(8-(hydroxymethyl)naphthalen-1-yl)pyrido[4,3-d]pyrimidin-4-yl)-1,6-diazaspiro[3.5]nonan-2-one]		10	8.78	15.4
N#Cc1cccc2cccc(-c3ncc4c(N5CCCC(c6nc[nH]n6)C5)nc(OCC56CCCN5CCC6)nc4c3F)c12 (centres unmarked) [Example 456, 8-(4-(3-(1H-1,2,4-triazol-3-yl)piperidin-1-yl)-8-fluoro-2-((hexahydro-1H-pyrrolizin-7a-yl)methoxy)pyrido[4,3-d]pyrimidin-7-yl)-1-naphthonitrile]		10.7	48.8	6.37
NS(=O)(=O)CC1CCCN(c2nc(OCC34CCCN3CCC4)nc3c(F)c(-c4cccc5cccc(C(F)(F)F)c45)ncc23)C1 (centres unmarked) [Example 465, 1-(1-(8-fluoro-2-((hexahydro-1H-pyrrolizin-7a-yl)methoxy)-7-(8-(trifluoromethyl)naphthalen-1-yl)pyrido[4,3-d]pyrimidin-4-yl)piperidin-3-yl)methanesulfonamide]		6.1	15.6	10.1
CCc1c(F)ccc2cc(O)cc(-c3ncc4c(N5CCN6C(C5)C(=O)NC6(C)C)nc(OC[C@@]56CCCN5C[C@H](F)C6)nc4c3F)c12 (stereo partly drawn) [Example 489, 7-(7-(8-ethyl-7-fluoro-3-hydroxynaphthalen-1-yl)-8-fluoro-2-(((2R,7aS)-2-fluorohexahydro-1H-pyrrolizin-7a-yl)methoxy)pyrido[4,3-d]pyrimidin-4-yl)-3,3-dimethylhexahydroimidazo[1,5-a]pyrazin-1(5H)-one]		0.151	0.221	0.31
